# Where “and” joins values, the source holds several entries; their conditions need not be identical. Equal entries are not always repeated. Entries after “also recorded” stand apart in the source; their conditions may differ.
# Key:
# human μ-opiate receptor = biological target: T1, human μ-opiate receptor (Homo sapiens, UniProt P35372); test: In vitro opiate receptor radioligand binding assay, μ; settings: test compound 10 μM
# T1 construct: purchased MDS Pharma Services 260410
# Description: (§1) To characterise the target specificity of the compounds, KRS-5-150 and KRS-6-26 were tested at a concentration of 10 μM for their ability to inhibit the binding of a radioligand to human δ-, κ-, or μ-opiate receptors in vitro using commercially available assays (MDS Pharma Services; assay catalogue numbers 260110, 260210 and 260410 respectively).
# (§2) Percentage inhibition of radioligand binding to human opioid receptors in vitro by test compounds (10 μM)
# human κ-opiate receptor = biological target: T2, human κ-opiate receptor (Homo sapiens, UniProt P41145); test: In vitro opiate receptor radioligand binding assay, κ; settings: test compound 10 μM
# T2 construct: purchased MDS Pharma Services 260210
# Description: as §1, §2
# ICR mice [1] = test: Radiant heat-induced tail-flick response assay in mice; assay type: in vivo; settings: IP; for % Inhibition (prolongation of tail-flick response time): 30 minutes; for Response Time (Seconds) 30 Mins., Average / Response Time (Seconds) 30 Mins.: 30 minutes after administration; for Response Time (Seconds) 30 Mins. / Response Time (Seconds) 0 Time: individual mice; for Response Time (Seconds) 30 Mins.: cut-off 15 seconds; for Response Time (Seconds) 0 Time / Response Time (Seconds) 0 Time, Average: pre-treatment (0 minutes)
# Description: For the tail-flick assay, groups of four male or female ICR mice weighing 22±2 g were used, and the test compound dissolved in 2% Tween 80/0.9% NaCl was administered intraperitoneally. The compound was administered intraperitoneally at 4, 8, 16 or 32 mg/kg, using 2% Tween 80—0.9% NaCl as the vehicle. Controls received vehicle alone. Morphine-HCl at a dose of 10 mg/kg was used as a positive control. At the pre-treatment point (0 minutes) a focused beam of radiant heat was applied to the middle dorsal surface of the tail to elicit a tail-flick response. […] The time required to elicit a pain response was recorded for each animal at 30 minutes following administration of the test compound. A prolongation of 50% or more ≧50% of the time required to elicit tail-flick response indicated possible analgesic activity.
# ICR-derived mice = test: Phenylquinone-induced writhing assay in mice, IP and oral (Example 17); assay type: in vivo; settings: for % Inhibition / Number of Writhings Average / Number of Writhings Individual: Table 2; for Number of Writhings Individual: individual mice; for Died (mortality, animals of group of 3): within 30 minutes after administration
# Description: Further testing on compound KRS-5–150 was carried out under contract by MDS Pharma Services—Taiwan Ltd. The study was designed to evaluate the effects of the compound as an analgesic in the phenylquinone-induced writhing assay, which was described in the previous example, and in the radiant heat-induced tail-flick response assay in mice (D'Amour et al., 1941).
# For the phenylquinone writhing test, groups of three male or female ICR-derived mice weighing 22±2 g were used. For the phenylquinone writhing test, KRS-5-150 at doses of 1, 2, 4, 8, 16, 32, 64 and 128 mg/kg in either 2% Tween 80/0.9% NaCl or in 2% Tween 80 was used for intraperitoneal administration, or at doses of 1, 2, 4, 8, 16, 32 or 64 mg/kg in the same vehicles for oral administration. Control animals received vehicle alone. […] A reduction in the number of writhes by 50% or more (≧50%) relative to the vehicle-treated group indicated possible analgesic activity.
# ICR mice [2] = test: Straub tail behaviour (indicator of CNS activity) and observed signs in test animals
# Source text: The Straub test is an indicator of CNS activity.
# The tail-flick test is thought to involve central nervous system activity, and therefore provides further confirmation of the Straub tail test.
# human δ-opiate receptor = biological target: T3, human δ-opiate receptor (Homo sapiens, UniProt P41143); test: In vitro opiate receptor radioligand binding assay, δ; settings: test compound 10 μM
# T3 construct: purchased MDS Pharma Services 260110
# Description: as §1, §2
# T3 sequence (P41143 whole entry): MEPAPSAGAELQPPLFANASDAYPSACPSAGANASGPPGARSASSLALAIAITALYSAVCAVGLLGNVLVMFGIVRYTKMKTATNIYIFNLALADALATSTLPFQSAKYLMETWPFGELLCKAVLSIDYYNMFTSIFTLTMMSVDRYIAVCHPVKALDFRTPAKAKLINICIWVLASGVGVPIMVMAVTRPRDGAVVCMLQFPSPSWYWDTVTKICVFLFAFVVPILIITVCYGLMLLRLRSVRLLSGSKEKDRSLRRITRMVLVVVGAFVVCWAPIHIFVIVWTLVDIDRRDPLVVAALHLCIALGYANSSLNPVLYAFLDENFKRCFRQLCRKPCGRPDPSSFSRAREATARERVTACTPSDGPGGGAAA
# T2 sequence (P41145 whole entry): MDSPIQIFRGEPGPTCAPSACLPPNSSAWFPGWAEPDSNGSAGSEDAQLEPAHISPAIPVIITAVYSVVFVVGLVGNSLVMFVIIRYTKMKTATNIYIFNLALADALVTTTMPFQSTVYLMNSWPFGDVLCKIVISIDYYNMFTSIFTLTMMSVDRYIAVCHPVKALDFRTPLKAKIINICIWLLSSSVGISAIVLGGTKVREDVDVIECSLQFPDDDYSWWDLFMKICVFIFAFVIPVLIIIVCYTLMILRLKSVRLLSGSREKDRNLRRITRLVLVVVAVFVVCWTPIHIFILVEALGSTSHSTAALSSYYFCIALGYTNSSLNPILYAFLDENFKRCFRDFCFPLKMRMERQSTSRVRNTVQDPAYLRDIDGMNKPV
# T1 sequence (P35372 whole entry): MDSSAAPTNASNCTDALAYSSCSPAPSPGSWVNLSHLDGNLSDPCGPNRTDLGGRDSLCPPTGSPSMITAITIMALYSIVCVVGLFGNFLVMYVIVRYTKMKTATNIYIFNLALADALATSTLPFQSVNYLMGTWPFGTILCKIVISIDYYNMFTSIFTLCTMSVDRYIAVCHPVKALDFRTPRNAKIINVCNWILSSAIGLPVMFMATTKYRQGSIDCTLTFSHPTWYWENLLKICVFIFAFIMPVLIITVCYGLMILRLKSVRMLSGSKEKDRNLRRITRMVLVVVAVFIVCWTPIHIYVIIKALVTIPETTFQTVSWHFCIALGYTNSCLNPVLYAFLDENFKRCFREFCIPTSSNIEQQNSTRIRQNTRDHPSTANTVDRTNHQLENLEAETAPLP
structure (smiles),measurement,setting,value
"Oc1ccc2c3c1O[C@H]1[C@@H](O)C=C[C@H]4[C@@H](C2)N(CCCNC(=Nc2ccccc2)Nc2ccccc2)CC[C@@]341 [KRS-5-150, (5α,6α)-7,8 didehydro-4,5-epoxy-17-(N,N′-bisphenylcarboxamidino-3-aminopropyl)morphinan,3,6-diol]","Percentage inhibition of radioligand binding, μ-opiate receptor",human μ-opiate receptor,98%
same,"Percentage inhibition of radioligand binding, κ-opiate receptor",human κ-opiate receptor,79%
same,% Inhibition (prolongation of tail-flick response time),ICR mice [1]; 4 mg/kg,5%
same,"Response Time (Seconds) 30 Mins., Average",ICR mice [1]; 4 mg/kg,6.6 s
same,Response Time (Seconds) 30 Mins.,"ICR mice [1]; 4 mg/kg, 4 mg/kg",6.2 Seconds (2×) and 6.4 Seconds and 7.4 Seconds
same,Response Time (Seconds) 0 Time,ICR mice [1]; 4 mg/kg,6.3 Seconds (2×) and 6.4 Seconds and 6.2 Seconds
same,"Response Time (Seconds) 0 Time, Average",ICR mice [1]; 4 mg/kg,6.3 s
same,% Inhibition (prolongation of tail-flick response time),ICR mice [1]; 8 mg/kg,3%
same,"Response Time (Seconds) 30 Mins., Average",ICR mice [1]; 8 mg/kg,6.6 s
same,Response Time (Seconds) 30 Mins.,"ICR mice [1]; 8 mg/kg, 8 mg/kg",6.4 s and 6.8 s and 6.5 s and 6.7 s
same,Response Time (Seconds) 0 Time,ICR mice [1]; 8 mg/kg,6.3 Seconds (2×) and 6.5 Seconds and 6.4 Seconds
same,"Response Time (Seconds) 0 Time, Average",ICR mice [1]; 8 mg/kg,6.4 s
same,% Inhibition (prolongation of tail-flick response time),ICR mice [1]; 16 mg/kg,2%
same,"Response Time (Seconds) 30 Mins., Average",ICR mice [1]; 16 mg/kg,6.4 s
same,Response Time (Seconds) 30 Mins.,"ICR mice [1]; 16 mg/kg, 16 mg/kg",6.3 s and 6.5 s and 6.2 s and 6.4 s
same,Response Time (Seconds) 0 Time,ICR mice [1]; 16 mg/kg,6.2 Seconds (2×) and 6.3 Seconds and 6.4 Seconds
same,"Response Time (Seconds) 0 Time, Average",ICR mice [1]; 16 mg/kg,6.3 s
same,% Inhibition (prolongation of tail-flick response time),ICR mice [1]; 32 mg/kg,19%
same,"Response Time (Seconds) 30 Mins., Average",ICR mice [1]; 32 mg/kg,7.6 s
same,Response Time (Seconds) 30 Mins.,"ICR mice [1]; 32 mg/kg, 32 mg/kg",6.7 s and 8.7 s and 6.5 s and 8.4 s
same,Response Time (Seconds) 0 Time,ICR mice [1]; 32 mg/kg,6.5 Seconds and 6.3 Seconds (2×) and 6.4 Seconds
same,"Response Time (Seconds) 0 Time, Average",ICR mice [1]; 32 mg/kg,6.4 s
same,analgesic activity in tail-flick assay (≧50% prolongation),"ICR mice [1]; 4, 8, 16 and 32 mg/kg",none of the four doses used showed significant activity
same,% Inhibition,"ICR-derived mice; IP, 1 mg/kg",13%
same,Number of Writhings Average,"ICR-derived mice; IP, 1 mg/kg",14
same,Number of Writhings Individual,"ICR-derived mice; IP, 1 mg/kg",16 and 13 and 14
same,% Inhibition,"ICR-derived mice; IP, 2 mg/kg",31%
same,Number of Writhings Average,"ICR-derived mice; IP, 2 mg/kg",11
same,Number of Writhings Individual,"ICR-derived mice; IP, 2 mg/kg",13 and 11 and 8
same,% Inhibition,"ICR-derived mice; IP, 4 mg/kg",(56) %
same,Number of Writhings Average,"ICR-derived mice; IP, 4 mg/kg",7
same,Number of Writhings Individual,"ICR-derived mice; IP, 4 mg/kg",2 and 11 and 8
same,% Inhibition,"ICR-derived mice; IP, 8 mg/kg",(88) %
same,Number of Writhings Average,"ICR-derived mice; IP, 8 mg/kg",2
same,Number of Writhings Individual,"ICR-derived mice; IP, 8 mg/kg",0 and 4 and 2
same,% Inhibition,"ICR-derived mice; IP, 16 mg/kg",(69) %
same,Number of Writhings Average,"ICR-derived mice; IP, 16 mg/kg",5
same,Number of Writhings Individual,"ICR-derived mice; IP, 16 mg/kg",4 and 2 and 9
same,% Inhibition,"ICR-derived mice; IP, 32 mg/kg",(100) %
same,Number of Writhings Average,"ICR-derived mice; IP, 32 mg/kg",0
same,Number of Writhings Individual,"ICR-derived mice; IP, 32 mg/kg",0
same,Number of Writhings Individual,"ICR-derived mice; IP, 64 mg/kg",Died and 0 (2×)
same,"Died (mortality, animals of group of 3)","ICR-derived mice; IP, 64 mg/kg, 64 mg/kg",1 of 3 and ⅓ and 1/3 Died
same,Number of Writhings Individual,"ICR-derived mice; IP, 128 mg/kg",0 and Died (2×)
same,"Died (mortality, animals of group of 3)","ICR-derived mice; IP, 128 mg/kg, 128 mg/kg",2 of 3 and ⅔ and 2/3 Died
same,analgesic activity in writhing test,ICR-derived mice; given IP,active
same,analgesic activity (≧50% reduction in writhes),"ICR-derived mice; intraperitoneal, doses of 4, 8, 16 and 32 mg/kg",Significant activity
same,analgesic activity (≧50% reduction in writhes),"ICR-derived mice; oral administration, 1 to 64 mg/kg",not when given orally; also recorded: not after oral administration
same,% Inhibition,"ICR-derived mice; oral, 1 mg/kg",0%
same,Number of Writhings Average,"ICR-derived mice; oral, 1 mg/kg",16
same,Number of Writhings Individual,"ICR-derived mice; oral, 1 mg/kg",25 and 8 and 14
same,% Inhibition,"ICR-derived mice; oral, 2 mg/kg",0%
same,Number of Writhings Average,"ICR-derived mice; oral, 2 mg/kg",14
same,Number of Writhings Individual,"ICR-derived mice; oral, 2 mg/kg",9 and 21 and 11
same,% Inhibition,"ICR-derived mice; oral, 4 mg/kg",0%
same,Number of Writhings Average,"ICR-derived mice; oral, 4 mg/kg",14
same,Number of Writhings Individual,"ICR-derived mice; oral, 4 mg/kg",9 and 15 and 17
same,% Inhibition,"ICR-derived mice; oral, 8 mg/kg",0%
same,Number of Writhings Average,"ICR-derived mice; oral, 8 mg/kg",15
same,Number of Writhings Individual,"ICR-derived mice; oral, 8 mg/kg",17 and 21 and 6
same,% Inhibition,"ICR-derived mice; oral, 16 mg/kg",0%
same,Number of Writhings Average,"ICR-derived mice; oral, 16 mg/kg",14
same,Number of Writhings Individual,"ICR-derived mice; oral, 16 mg/kg",6 and 17 and 18
same,% Inhibition,"ICR-derived mice; oral, 32 mg/kg",0%
same,Number of Writhings Average,"ICR-derived mice; oral, 32 mg/kg",15
same,Number of Writhings Individual,"ICR-derived mice; oral, 32 mg/kg",12 and 14 and 18
same,% Inhibition,"ICR-derived mice; oral, 64 mg/kg",14%
same,Number of Writhings Average,"ICR-derived mice; oral, 64 mg/kg",12
same,Number of Writhings Individual,"ICR-derived mice; oral, 64 mg/kg",12 and 5 and 18
same,test animals exhibiting an increase in respiratory depth,"ICR mice [2]; 128 mg/kg IP, Example 17",3 of 3
same,test animals exhibiting slight anoxia,"ICR mice [2]; 128 mg/kg IP, Example 17",3 of 3
same,test animals exhibiting slight tremors,"ICR mice [2]; 128 mg/kg IP, Example 17",3 of 3
same,Straub tail behaviour,ICR mice [2]; Example 17 (writhing and tail-flick studies),None of the mice given KRS-5-150 exhibited Straub tail behaviour
same,Straub tail behaviour,"ICR mice [2]; IP, 2 to 64 mg/kg, Example 16",did not exhibit Straub tail behaviour
same,"Percentage inhibition of radioligand binding, δ-opiate receptor",human δ-opiate receptor,79%

# Source: patent US7199129B2, “Derivatives of morphine-like opioid compounds” (Monash University, priority 2001, dated 2007)
